ChEMBL document CHEMBL1201862, “PubChem BioAssay data set” (2004)
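Test compounds were applied to cells in 96-well plates for 48 hours at 5 doses. GI50: concentration for 50% inhibition of growth.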 Active and inactive are the calls of the source. Cut-off read from the data, not from the text of the source: active = GI50 up to about 1.1 µM and inactive = higher.

What was measured:
Experiment in all cases: NCI-60 cell line screen, 48 h
LOX IMVI = tested on: LOX IMVI
MDA-N = tested on: MDA-N
UACC-62 = tested on: UACC-62
EKVX = tested on: EKVX
NCI-H23 = tested on: NCI-H23
HT-29 = tested on: HT-29
CCRF-CEM = tested on: CCRF-CEM
SK-MEL-28 = tested on: SK-MEL-28
MDA-MB-231 = tested on: MDA-MB-231
OVCAR-8 = tested on: OVCAR-8
T47D = tested on: T47D
SF-295 = tested on: SF-295
NCI/ADR-RES = tested on: NCI/ADR-RES
SR = tested on: SR
ACHN = tested on: ACHN
NCI-H226 = tested on: NCI-H226
IGROV-1 = tested on: IGROV-1
SN12C = tested on: SN12C
UO-31 = tested on: UO-31
SF-539 = tested on: SF-539
CAKI-1 = tested on: CAKI-1
SK-OV-3 = tested on: SK-OV-3
SNB-19 = tested on: SNB-19
COLO 205 = tested on: COLO 205
RPMI-8226 = tested on: RPMI-8226
M14 = tested on: M14
HCC 2998 = tested on: HCC 2998
OVCAR-5 = tested on: OVCAR-5
786-0 = tested on: 786-0
MCF7 = tested on: MCF7
HCT-116 = tested on: HCT-116
A498 = tested on: A498
U-251 = tested on: U-251
KM12 = tested on: KM12
SF-268 = tested on: SF-268
OVCAR-3 = tested on: OVCAR-3
HOP-62 = tested on: HOP-62
A549 = tested on: A549
MOLT-4 = tested on: MOLT-4
Hs-578T = tested on: Hs-578T
K562 = tested on: K562
SK-MEL-5 = tested on: SK-MEL-5
Malme-3M = tested on: Malme-3M
RXF 393 = tested on: RXF 393
OVCAR-4 = tested on: OVCAR-4
MDA-MB-435 = tested on: MDA-MB-435
PC-3 = tested on: PC-3
HOP-92 = tested on: HOP-92
TK-10 = tested on: TK-10
SW-620 = tested on: SW-620
BT-549 = tested on: BT-549
NCI-H460 = tested on: NCI-H460
NCI-H522 = tested on: NCI-H522
SK-MEL-2 = tested on: SK-MEL-2
UACC-257 = tested on: UACC-257
DU-145 = tested on: DU-145
HCT-15 = tested on: HCT-15
SNB-75 = tested on: SNB-75
HL-60 = tested on: HL-60

With `CCC(=O)Oc1ccc2c(c1)c(=O)c1c(NCCCN(C)C)ccc3nnn2c31` the GI50 (LOX IMVI) was 1030 nM (active), the GI50 (MDA-N) was 3860 nM (inactive) and the GI50 (UACC-62) was 11200 nM (inactive). The GI50 (EKVX) was 1170 nM (inactive), the GI50 (NCI-H23) was 3350 nM (inactive) and the GI50 (HT-29) was 690 nM (active). For the same compound, the GI50 (CCRF-CEM) was 127 nM (active), the GI50 (SK-MEL-28) was 10900 nM (inactive) and the GI50 (MDA-MB-231) was 3440 nM (inactive). For the same compound, the GI50 (OVCAR-8) was 403 nM (active), the GI50 (T47D) was 15700 nM (inactive) and the GI50 (SF-295) was 2450 nM (inactive). For the same compound, the GI50 (NCI/ADR-RES) was 3310 nM (inactive), the GI50 (SR) was 201 nM (active) and the GI50 (ACHN) was 385 nM (active). The GI50 (NCI-H226) was 2310 nM (inactive), the GI50 (IGROV-1) was 91.4 nM (active) and the GI50 (SN12C) was 525 nM (active). The GI50 (UO-31) was 953 nM (active), the GI50 (SF-539) was 1710 nM (inactive) and the GI50 (CAKI-1) was 664 nM (active). The GI50 (SK-OV-3) was 4360 nM (inactive), the GI50 (SNB-19) was 2060 nM (inactive) and the GI50 (COLO 205) was 1990 nM (inactive). The GI50 (RPMI-8226) was 767 nM (active), the GI50 (M14) was 5300 nM (inactive) and the GI50 (HCC 2998) was 1250 nM (inactive). The GI50 (OVCAR-5) was 8280 nM (inactive), the GI50 (786-0) was 361 nM (active) and the GI50 (MCF7) was 536 nM (active). The GI50 (HCT-116) was 334 nM (active), the GI50 (A498) was 2770 nM (inactive) and the GI50 (U-251) was 1420 nM (inactive). For the same compound, the GI50 (KM12) was 796 nM (active), the GI50 (SF-268) was 1800 nM (inactive) and the GI50 (OVCAR-3) was 7000 nM (inactive). For the same compound, the GI50 (HOP-62) was 1530 nM (inactive), the GI50 (A549) was 275 nM (active) and the GI50 (MOLT-4) was < 20.4 nM (active). For the same compound, the GI50 (Hs-578T) was 5560 nM (inactive), the GI50 (K562) was 726 nM (active) and the GI50 (SK-MEL-5) was 1900 nM (inactive). For the same compound, the GI50 (Malme-3M) was 3980 nM (inactive), the GI50 (RXF 393) was 1830 nM (inactive) and the GI50 (OVCAR-4) was 548 nM (active). For the same compound, the GI50 (MDA-MB-435) was 2790 nM (inactive), the GI50 (PC-3) was 2480 nM (inactive) and the GI50 (HOP-92) was 3480 nM (inactive). For the same compound, the GI50 (TK-10) was 818 nM (active), the GI50 (SW-620) was 322 nM (active) and the GI50 (BT-549) was 12300 nM (inactive). The GI50 (NCI-H460) was 34.8 nM (active), the GI50 (NCI-H522) was 188 nM (active) and the GI50 (SK-MEL-2) was 13000 nM (inactive). The GI50 (UACC-257) was 10600 nM (inactive), the GI50 (DU-145) was 1040 nM (active) and the GI50 (HCT-15) was 400 nM.

With `C#CCn1c(=O)ccn(/C(=C\C(=O)OCC)C(=O)OCC)c1=O` the GI50 (LOX IMVI) was 12200 nM (inactive), the GI50 (MDA-N) was 15800 nM (inactive) and the GI50 (UACC-62) was 14200 nM (inactive). For the same compound, the GI50 (EKVX) was 6280 nM (inactive), the GI50 (SNB-75) was 20000 nM (inactive) and the GI50 (NCI-H23) was 14900 nM (inactive). For the same compound, the GI50 (HT-29) was 2040 nM (inactive), the GI50 (CCRF-CEM) was 381 nM (active) and the GI50 (SK-MEL-28) was 11700 nM (inactive). For the same compound, the GI50 (MDA-MB-231) was 18100 nM (inactive), the GI50 (OVCAR-8) was 2310 nM (inactive) and the GI50 (T47D) was 3520 nM (inactive). For the same compound, the GI50 (SF-295) was 22900 nM (inactive), the GI50 (NCI/ADR-RES) was 7640 nM (inactive) and the GI50 (SR) was 5020 nM (inactive). For the same compound, the GI50 (ACHN) was 1640 nM (inactive), the GI50 (NCI-H226) was 19900 nM (inactive) and the GI50 (IGROV-1) was 9080 nM (inactive). The GI50 (SN12C) was 8890 nM (inactive), the GI50 (UO-31) was 13500 nM (inactive) and the GI50 (SF-539) was 1860 nM (inactive). For the same compound, the GI50 (CAKI-1) was 1030 nM (active), the GI50 (SK-OV-3) was 33000 nM (inactive) and the GI50 (SNB-19) was 19900 nM (inactive). The GI50 (COLO 205) was 1110 nM (active), the GI50 (RPMI-8226) was 2730 nM (inactive) and the GI50 (M14) was 4320 nM (inactive). The GI50 (HCC 2998) was 19900 nM (inactive), the GI50 (OVCAR-5) was 13500 nM (inactive) and the GI50 (786-0) was 2300 nM (inactive). For the same compound, the GI50 (MCF7) was 2870 nM (inactive), the GI50 (HCT-116) was 5530 nM (inactive) and the GI50 (A498) was 17100 nM (inactive). For the same compound, the GI50 (HL-60) was 2930 nM (inactive), the GI50 (U-251) was 14300 nM (inactive) and the GI50 (KM12) was 22800 nM (inactive). The GI50 (SF-268) was 19900 nM (inactive), the GI50 (OVCAR-3) was 5610 nM (inactive) and the GI50 (HOP-62) was 23500 nM (inactive). The GI50 (A549) was 22800 nM (inactive), the GI50 (MOLT-4) was 2560 nM (inactive) and the GI50 (Hs-578T) was 27700 nM (inactive). For the same compound, the GI50 (K562) was 3540 nM (inactive), the GI50 (SK-MEL-5) was 20500 nM (inactive) and the GI50 (Malme-3M) was 1890 nM (inactive). For the same compound, the GI50 (RXF 393) was 2080 nM (inactive), the GI50 (OVCAR-4) was 2850 nM (inactive) and the GI50 (MDA-MB-435) was 7330 nM (inactive). The GI50 (PC-3) was 15000 nM (inactive), the GI50 (HOP-92) was 2160 nM (inactive) and the GI50 (TK-10) was 1810 nM (inactive). The GI50 (SW-620) was 1680 nM (inactive), the GI50 (BT-549) was 12400 nM (inactive) and the GI50 (NCI-H460) was 2630 nM (inactive). For the same compound, the GI50 (SK-MEL-2) was 16400 nM (inactive), the GI50 (UACC-257) was 15300 nM (inactive) and the GI50 (DU-145) was 15600 nM (inactive). For the same compound, the GI50 (HCT-15) was 1510 nM.
